Source: article PMC9241057, “Ru(II)arene(N^N bpy/phen)-based RAPTA complexes for in vitro anti-tumour activity in human glioblastoma cancer cell lines and in vivo toxicity studies in a zebrafish model” (RSC Advances, 2022)

Experiments:
LN229 = assay: MTT cytotoxicity assay, LN229; type: cell-based, human; conditions: 72 h incubation
Method: (§1) The cytotoxic activity of prepared RAPTA complexes (4a–4h) was evaluated by following the standard procedure of the MTT experiment against a series of glioblastoma cells (LN 229, T98, U87MG) in triplicate. In order to accomplish this study, cells were maintained for 72 h with complexes of various concentrations ranging from 2–160 μM, taking cisplatin as a typical positive control.[22]
(§2) RAPTA complexes were dissolved in 1% DMSO, and 0.9% NaCl aqueous solution was used to dissolve cisplatin. A cell suspension was prepared and the number of cells taken was 2.5 × 10^4 mL^−1. The cells were seeded in 96-well plates (200 μL per well) and allowed 80% confluence prior to treatment. The cells were formerly treated with various concentrations (2.5–160 μM) of complex 4a–h while the control group was treated with PBS […]. After the 72 hours of incubation, 0.5% MTT solution was added to each well (20 μL) and further incubated for 4 hours at […]. The formazan crystals that were formed were dissolved in 150 μL DMSO and then the OD was measured by a microplate reader at 540 nm. The % growth inhibition of the control and treated cells were calculated and represented as the growth inhibition percentage as explained below.% growth inhibition = 100 − [(AD × 100)/AB]where AD is the absorbance measured in wells containing the treated and control samples and AB is the measured absorbance for the wells with media and a vehicle that served as the blank. IC50 was calculated using Graphpad Prism (version 6.0) where % cell viability was plotted against drug concentration.

T98 = assay: MTT cytotoxicity assay, T98; type: cell-based, human; conditions: 72 h incubation
Method: as §1, §2

U87MG = assay: MTT cytotoxicity assay, U87MG; type: cell-based, human; conditions: 72 h incubation
Method: as §1, §2

Conductivity measurement = type: physicochemical; conditions: 3 x 10^-5 M; for Conductivity (ΛM) 10% aq DMSO: in 10% aq DMSO; for Conductivity (ΛM) DMSO: in DMSO
Text: concentrations gradually.
Origin Lab, version 8.5 was
equation (v) given below: […]
Conductivity measurement 7
complexes with DMSO and aqueous DMSO.
followed the previously described procedure. An orbital shaker was used to shake a known
Different ratios (0.5:1, 1:1,
saturated n-octanol to get the partition coefficient. The absorbance of aliquots of the aqueous

[1] = n-Octanol/water partition coefficient, shake-flask method
Method: n-Octanol–water partition coefficient (log P o/w)8
Using the previously reported shake flask approach, the log Po/w of the RAPTA complexes
amount of each complexes in water (pre-saturated with n-octanol). The solution was
centrifuged at 3000 rpm for 10 minutes to allow phase separation. Different ratios (0.5:1, 1:1,
and 2:1) of saturated solutions were shaken for 20 minutes on an orbital shaker with pre-
and octanol layers were measured with a UV-Vis spectrophotometer after adequate dilution.
The concentrations of the complexes in each layer were estimated using the corresponding
molar extinction coefficients, and the partition coefficient (log Po/w) values were computed

Solubility = conditions: DMSO-10% DMEM medium (1:99 v/v, comparable to cell media)
Ct-DNA = conditions: comparison value, no reference given; cited from earlier work
EtBr-bound DNA (Ct-DNA) = tested on: EtBr-bound DNA (Ct-DNA); set-up: method as in PMID 34612310; conditions: from literature ref 20; cited from earlier work

Row | Molecule | IC50 (LN229) | IC50 (T98) | IC50 (U87MG) | Conductivity (ΛM) 10% aq DMSO (Conductivity measurement) | Conductivity (ΛM) DMSO (Conductivity measurement) | log P (partition coefficient in n-octanol/water) [1] | solubility (Solubility) | KEtBr, DNA binding constant of the typical intercalator (Ct-DNA) | KEtBr, EtBr binding constant (EtBr-bound DNA (Ct-DNA))
1 | C1N2CN3CN1CP(C2)C3.Cc1ccc(C(C)C)cc1.F[P-](F)(F)(F)(F)F.F[P-](F)(F)(F)(F)F.Oc1ccnc2c1ccc1c(O)ccnc12.[Ru+2] [4a, [(η^6-p-Cymene)Ru^II(κ^2-N,N-4,7dihydroxyphenanthroline)(PTA)]·2PF6] | 1.8 ± 0.04 µM | 1.95 ± 0.04 µM | 1.69 ± 0.04 µM | 74 S cm2 mol-1 | 72 S cm2 mol-1 |  |  |  | 
2 | C1N2CN3CN1CP(C2)C3.Cc1ccc(C(C)C)cc1.F[P-](F)(F)(F)(F)F.F[P-](F)(F)(F)(F)F.[Ru+2].c1cnc2c(c1)ccc1cccnc12 [4b, [(η^6-p-Cymene)Ru^II(κ^2-N,N-phenanthroline)(PTA)]·2PF6] | 2.19 ± 0.16 µM | 1.91 ± 0.08 µM | 1.91 ± 0.08 µM | 78 S cm2 mol-1 | 74 S cm2 mol-1 |  |  |  | 
3 | C1N2CN3CN1CP(C2)C3.Cc1ccc(C(C)C)cc1.F[P-](F)(F)(F)(F)F.F[P-](F)(F)(F)(F)F.[Ru+2].c1ccc(-c2ccccn2)nc1 [4e, [(η^6-p-Cymene)Ru^II(κ^2-N,N-bipyridine)(PTA)]·2PF6] | 1.89 ± 0.06 µM | 1.99 ± 0.04 µM | 1.75 ± 0.03 µM |  |  | 1.4±0.08 |  |  | 
4 | C1N2CN3CN1CP(C2)C3.Cc1ccc(C(C)C)cc1.F[P-](F)(F)(F)(F)F.F[P-](F)(F)(F)(F)F.O=C(O)c1ccnc(-c2cc(C(=O)O)ccn2)c1.[Ru+2] [4f, [(η^6-p-Cymene)Ru^II(κ^2-N,N-4,4′ dicarboxylic acid bipyridine)(PTA)]·2PF6] | 1.79 ± 0.02 µM | 2.12 ± 0.03 µM | 1.57 ± 0.02 µM | 77 S cm2 mol-1 | 75 S cm2 mol-1 | 0.33±0.03 | 17 mM |  | 
5 | C1N2CN3CN1CP(C2)C3.CCCCCCCCCc1ccnc(-c2cc(CCCCCCCCC)ccn2)c1.Cc1ccc(C(C)C)cc1.F[P-](F)(F)(F)(F)F.F[P-](F)(F)(F)(F)F.[Ru+2] [4h, [(η^6-p-Cymene)Ru^II(κ^2-N,N-4,4′ dinonylbipyridine)(PTA)]·2PF6] | 1.64 ± 0.03 µM | 1.47 ± 0.03 µM | 1.46 ± 0.03 µM | 77 S cm2 mol-1 | 71 S cm2 mol-1 |  |  |  | 
6 | CC[n+]1c(-c2ccccc2)c2cc(N)ccc2c2ccc(N)cc21 [EtBr, ethidium bromide] |  |  |  |  |  |  |  | 700000 M⁻¹ | 1e+07 M⁻¹
7 | [(η^6-p-Cymene)Ru^II(κ^2-N,N-4,4′ dimethylbipyridine)(PTA)]·2PF6 [4g] | 1.69 ± 0.02 µM | 1.7 ± 0.03 µM | 1.7 ± 0.03 µM | 74 S cm2 mol-1 | 72 S cm2 mol-1 |  |  |  | 
8 | cis-[Pt(NH3)2Cl2] [Cisplatin, reference compound] | 1.4 ± 0.05 µM | 1.36 ± 0.05 µM | 1.37 ± 0.04 µM |  |  |  |  |  | 
